Data taken from patent US20210228736A1, “PATHOGEN CONTROL COMPOSITIONS AND USES THEREOF” (Flagship Pioneering Innovations VI, LLC, priority 2018, published 2021).

Columns and labels:
[1] = test system: Pseudomonas aeruginosa; test: Treatment with DOX-loaded grapefruit PMPs, kinetic OD 600 nm (P. aeruginosa); type: cell-based
Description: (§1) Bacteria and yeast strains were maintained as indicated by the supplier: E. coli (ATCC, #25922) was grown on Trypticase Soy Agar/broth at 37° C., Pseudomonas aeruginosa (ATCC) was grown on Tryptic soy Agar/broth with […] rifampicin at 37° C., and Saccharomyces cerevisiae (ATCC, #9763) was grown on yeast extract peptone dextrose broth (YPD) and maintained at 30° C. Prior to treatment, fresh one day cultures were grown overnight, the OD (600 nm) was adjusted to 0.1 OD with medium prior to use, and bacteria/yeast were transferred to a 96 well plate for treatment (duplicate samples, 100 μl/well). […] Plates were covered with aluminum foil, and incubated at 37° C. (E. coli, P. aeruginosa), or 30° C. (S. cerevisiae) and agitated at 220 rpm.
(§2) A kinetic Absorbance measurement at 600 nm was performed on a SpectraMax® spectrophotometer to monitor the OD of the cultures at t=0h, t=1h, t=2h, t=3h, t=4.5h, t=16h (E. coli, P. aeruginosa) or t=0.5h, t=1.5h, t=2.5h, t=3.5h, t=4h, t=16h (S. cerevisiae). […] To compare the cytotoxic effect of PMP-DOX treatment on different bacterial and yeast strains, within each treatment group the relative OD was determined as compared to the untreated control (set to 100%).

[2] = test system: E. coli; test: Treatment with DOX-loaded grapefruit PMPs, kinetic OD 600 nm (E. coli); type: cell-based, Escherichia coli
Description: as §1, §2

[3] = test system: Saccharomyces cerevisiae; test: Treatment with DOX-loaded grapefruit PMPs, kinetic OD 600 nm (S. cerevisiae); type: cell-based
Description: as §1, §2

COc1cccc2c1C(=O)c1c(O)c3c(c(O)c1C2=O)C[C@@](O)(C(=O)CO)C[C@@H]3O[C@H]1C[C@H](N)[C@H](O)[C@H](C)O1 [free doxorubicin, doxorubicin]
onset of cytotoxicity compared with PMP-DOX at the same dosages [1]: cytotoxicity is induced earlier than with PMP-DOX delivery
onset of cytotoxicity compared with PMP-DOX at the same dosages [2]: cytotoxicity is induced earlier than with PMP-DOX delivery
onset of cytotoxicity compared with PMP-DOX at the same dosages [3]: cytotoxicity is induced earlier than with PMP-DOX delivery
